Results as given in patent US20070049564A1 (Wyeth, priority 2005, published 2007).
Values after ≈ are worked out from the molar mass of the structure shown. Read-outs that look alike come from different tables or passages of the source.

Legend:
Assay in all cases: MIC, broth microdilution
E. coli GC 2235 = conditions: Escherichia coli
E. coli GC 2272 = conditions: Escherichia coli
E. coli GC 4559 = conditions: Escherichia coli
E. coli GC 4560 = conditions: Escherichia coli
E. coli GC 6465 = conditions: Escherichia coli
E. coli GC 1073 = conditions: Escherichia coli
S. typhimurium GC 2172 = conditions: Salmonella enterica, TYPHIMURIUM
S. aureus GC 1131 = conditions: Staphylococcus aureus
S. aureus GC 6467 = conditions: Staphylococcus aureus
S. aureus GC 1079 = conditions: Staphylococcus aureus
S. aureus GC 4536 = conditions: Staphylococcus aureus
S. epidermidis GC 4935 = conditions: Staphylococcus epidermidis
E. faecalis GC 4555 = conditions: Enterococcus faecalis
E. faecalis GC 2267 = conditions: Enterococcus faecalis
E. faecalis GC 2242 = conditions: Enterococcus faecalis
S. pneumoniae* GC 4465 = conditions: Streptococcus pneumoniae
S. pneumoniae+ GC 4465 = conditions: Streptococcus pneumoniae
S. agalactiae GC 4564 = conditions: Streptococcus agalactiae
c. albicans GC 3066 = tested on: c. albicans GC 3066
[1] = read-out: MINIMAL INHIBITORY CONCENTRATION MIC, Human Serum
[2] = read-out: MINIMAL INHIBITORY CONCENTRATION MIC, Mouse Serum
[3] = read-out: MINIMAL INHIBITORY CONCENTRATION MIC, Water

MIC (E. coli GC 2235; GC2235, read-out: MINIMAL INHIBITORY CONCENTRATION MIC, Human Serum): 64 µg/mL (≈ 99.4 µM) | MIC (E. coli GC 2235; GC2235, read-out: MINIMAL INHIBITORY CONCENTRATION MIC, Mouse Serum): 64 µg/mL (≈ 99.4 µM) | MIC (E. coli GC 2235; GC2235, read-out: MINIMAL INHIBITORY CONCENTRATION MIC, Water): > 64 µg/mL | MIC (E. coli GC 2272; GC2272, read-out: MINIMAL INHIBITORY CONCENTRATION MIC, Human Serum): 32 µg/mL (≈ 49.7 µM) | MIC (E. coli GC 2272; GC2272, read-out: MINIMAL INHIBITORY CONCENTRATION MIC, Mouse Serum): 32 µg/mL (≈ 49.7 µM) | MIC (E. coli GC 2272; GC2272, read-out: MINIMAL INHIBITORY CONCENTRATION MIC, Water): 64 µg/mL (≈ 99.4 µM) | MIC (E. coli GC 4559; GC4559, read-out: MINIMAL INHIBITORY CONCENTRATION MIC, Human Serum): > 64 µg/mL | MIC (E. coli GC 4559; GC4559, read-out: MINIMAL INHIBITORY CONCENTRATION MIC, Mouse Serum): > 64 µg/mL | MIC (E. coli GC 4559; GC4559, read-out: MINIMAL INHIBITORY CONCENTRATION MIC, Water): > 64 µg/mL | MIC (E. coli GC 4560; GC4560, read-out: MINIMAL INHIBITORY CONCENTRATION MIC, Human Serum): 1 µg/mL (≈ 1.55 µM) | MIC (E. coli GC 4560; GC4560, read-out: MINIMAL INHIBITORY CONCENTRATION MIC, Mouse Serum): 1 µg/mL (≈ 1.55 µM) | MIC (E. coli GC 4560; GC4560, read-out: MINIMAL INHIBITORY CONCENTRATION MIC, Water): 2 µg/mL (≈ 3.11 µM) | MIC (E. coli GC 6465; GC6465, read-out: MINIMAL INHIBITORY CONCENTRATION MIC, Human Serum): > 64 µg/mL | MIC (E. coli GC 6465; GC6465, read-out: MINIMAL INHIBITORY CONCENTRATION MIC, Mouse Serum): > 64 µg/mL | MIC (E. coli GC 6465; GC6465, read-out: MINIMAL INHIBITORY CONCENTRATION MIC, Water): > 64 µg/mL | MIC (E. coli GC 1073; GC1073, read-out: MINIMAL INHIBITORY CONCENTRATION MIC, Human Serum): > 64 µg/mL | MIC (E. coli GC 1073; GC1073, read-out: MINIMAL INHIBITORY CONCENTRATION MIC, Mouse Serum): > 64 µg/mL | MIC (E. coli GC 1073; GC1073, read-out: MINIMAL INHIBITORY CONCENTRATION MIC, Water): > 64 µg/mL | MIC (S. typhimurium GC 2172; [1]): > 64 µg/mL | MIC (S. typhimurium GC 2172; [2]): > 64 µg/mL | MIC (S. typhimurium GC 2172; [3]): > 64 µg/mL | MIC (S. aureus GC 1131; GC1131, read-out: MINIMAL INHIBITORY CONCENTRATION MIC, Human Serum): 2 µg/mL (≈ 3.11 µM) | MIC (S. aureus GC 1131; GC1131, read-out: MINIMAL INHIBITORY CONCENTRATION MIC, Mouse Serum): 2 µg/mL (≈ 3.11 µM) | MIC (S. aureus GC 1131; GC1131, read-out: MINIMAL INHIBITORY CONCENTRATION MIC, Water): 8 µg/mL (≈ 12.4 µM) | MIC (S. aureus GC 6467; GC6467, read-out: MINIMAL INHIBITORY CONCENTRATION MIC, Human Serum): 4 µg/mL (≈ 6.21 µM) | MIC (S. aureus GC 6467; GC6467, read-out: MINIMAL INHIBITORY CONCENTRATION MIC, Mouse Serum): 4 µg/mL (≈ 6.21 µM) | MIC (S. aureus GC 6467; GC6467, read-out: MINIMAL INHIBITORY CONCENTRATION MIC, Water): 8 µg/mL (≈ 12.4 µM) | MIC (S. aureus GC 1079; GC1079, read-out: MINIMAL INHIBITORY CONCENTRATION MIC, Human Serum): 2 µg/mL (≈ 3.11 µM) | MIC (S. aureus GC 1079; GC1079, read-out: MINIMAL INHIBITORY CONCENTRATION MIC, Mouse Serum): 2 µg/mL (≈ 3.11 µM) | MIC (S. aureus GC 1079; GC1079, read-out: MINIMAL INHIBITORY CONCENTRATION MIC, Water): 4 µg/mL (≈ 6.21 µM) | MIC (S. aureus GC 4536; GC4536, read-out: MINIMAL INHIBITORY CONCENTRATION MIC, Human Serum): 2 µg/mL (≈ 3.11 µM) | MIC (S. aureus GC 4536; GC4536, read-out: MINIMAL INHIBITORY CONCENTRATION MIC, Mouse Serum): 2 µg/mL (≈ 3.11 µM) | MIC (S. aureus GC 4536; GC4536, read-out: MINIMAL INHIBITORY CONCENTRATION MIC, Water): 4 µg/mL (≈ 6.21 µM) | MIC (S. epidermidis GC 4935; GC4935, read-out: MINIMAL INHIBITORY CONCENTRATION MIC, Human Serum): 8 µg/mL (≈ 12.4 µM) | MIC (S. epidermidis GC 4935; GC4935, read-out: MINIMAL INHIBITORY CONCENTRATION MIC, Mouse Serum): 8 µg/mL (≈ 12.4 µM) | MIC (S. epidermidis GC 4935; GC4935, read-out: MINIMAL INHIBITORY CONCENTRATION MIC, Water): 16 µg/mL (≈ 24.9 µM) | MIC (E. faecalis GC 4555; GC4555, read-out: MINIMAL INHIBITORY CONCENTRATION MIC, Human Serum): 2 µg/mL (≈ 3.11 µM) | MIC (E. faecalis GC 4555; GC4555, read-out: MINIMAL INHIBITORY CONCENTRATION MIC, Mouse Serum): 4 µg/mL (≈ 6.21 µM) | MIC (E. faecalis GC 4555; GC4555, read-out: MINIMAL INHIBITORY CONCENTRATION MIC, Water): 4 µg/mL (≈ 6.21 µM) | MIC (E. faecalis GC 2267; GC2267, read-out: MINIMAL INHIBITORY CONCENTRATION MIC, Human Serum): 4 µg/mL (≈ 6.21 µM) | MIC (E. faecalis GC 2267; GC2267, read-out: MINIMAL INHIBITORY CONCENTRATION MIC, Mouse Serum): 8 µg/mL (≈ 12.4 µM) | MIC (E. faecalis GC 2267; GC2267, read-out: MINIMAL INHIBITORY CONCENTRATION MIC, Water): 8 µg/mL (≈ 12.4 µM) | MIC (E. faecalis GC 2242; GC2242, read-out: MINIMAL INHIBITORY CONCENTRATION MIC, Human Serum): 4 µg/mL (≈ 6.21 µM) | MIC (E. faecalis GC 2242; GC2242, read-out: MINIMAL INHIBITORY CONCENTRATION MIC, Mouse Serum): 8 µg/mL (≈ 12.4 µM) | MIC (E. faecalis GC 2242; GC2242, read-out: MINIMAL INHIBITORY CONCENTRATION MIC, Water): 8 µg/mL (≈ 12.4 µM) | MIC (S. pneumoniae* GC 4465; [1]): 1 µg/mL (≈ 1.55 µM) | MIC (S. pneumoniae* GC 4465; [2]): 1 µg/mL (≈ 1.55 µM) | MIC (S. pneumoniae* GC 4465; [3]): 2 µg/mL (≈ 3.11 µM) | MIC (S. pneumoniae+ GC 4465; [1]): 2 µg/mL (≈ 3.11 µM) | MIC (S. pneumoniae+ GC 4465; [2]): 4 µg/mL (≈ 6.21 µM) | MIC (S. pneumoniae+ GC 4465; [3]): 4 µg/mL (≈ 6.21 µM) | MIC (S. agalactiae GC 4564; GC4564, read-out: MINIMAL INHIBITORY CONCENTRATION MIC, Human Serum): 4 µg/mL (≈ 6.21 µM) | MIC (S. agalactiae GC 4564; GC4564, read-out: MINIMAL INHIBITORY CONCENTRATION MIC, Mouse Serum): 4 µg/mL (≈ 6.21 µM) | MIC (S. agalactiae GC 4564; GC4564, read-out: MINIMAL INHIBITORY CONCENTRATION MIC, Water): 4 µg/mL (≈ 6.21 µM) | MIC (c. albicans GC 3066; Candida albicans, GC3066, read-out: MINIMAL INHIBITORY CONCENTRATION MIC): > 64 µg/mL | MINIMAL INHIBITORY CONCENTRATION MIC (c. albicans GC 3066; Human Serum): >64 UG/ML | MINIMAL INHIBITORY CONCENTRATION MIC (c. albicans GC 3066; Mouse Serum): >64 UG/ML
SMILES: COC(=O)N(CC(=O)Nc1cc(N(C)C)c2c(c1O)C(=O)C1=C(O)[C@]3(O)C(=O)C(C(N)=O)=C(O)[C@@H](N(C)C)[C@@H]3C[C@@H]1C2)C(C)(C)C [Example 60, methyl 2-{[(5aR,6aS,7S,10aS)-9-(aminocarbonyl)-4,7-bis(dimethylamino)-1,8,10a,11-tetrahydroxy-10,12-dioxo-5,5a,6,6a,7,10,10a,12-octahydrotetracen-2-yl]amino}-2-oxoethyl(tert-butyl)carbamate]
